In patent publication US20240287046A1, “COMPOUNDS AND RADIOLIGANDS FOR TARGETING NEUROTENSIN RECEPTOR AND USES THEREOF” (Full-Life Technologies HK Limited, priority 2022, published 2024):

System: ASPC-1 tumor-bearing mice
Experiment: Biodistribution of radionuclide labeled complexes in ASPC-1 tumor-bearing mice
Assay type: in vivo, BALB/c nude mice
Protocol: The BALB/c nude mice (Charles River, Beijing) were utilized to establish the xenografted model for biodistribution study. All animal care and experimental procedure were performed by following the animal protocols approved by the ethics committee of China Institute of Radiation Protection.
Briefly, each mouse was inoculated with approximately 4×10^6 ASPC-1 cells (human pancreatic cancer cell line) or HT-29 cells (human colorectal adenocarcinoma cell line) expressing human NTSR-1 by subcutaneous injection at rear flank. After inoculation, the xenografted tumors were allowed to grow for ˜2-4 weeks till the tumor weight reached to about 0.05 to 0.50 g (0.20 g in average).
Biodistribution studies were performed by administrating the radionuclide labeled test compound at a dose of ˜30-50 μCi (100 μL in 0.9% NaCl, ˜1.11-1.85 MBq, with specific activity 30-250 μCi/nmol) to each animal through tail vein injection.
At different time points after the administration, the mice treated with each compound were euthanized. The tissues and organs of the animals in each group were collected, excised, weighed, and analyzed in a PerkinElmer 2480 WIZARD2γ counter, and the percent injected dose (% ID) and % ID/g of each organ or tissue were calculated.

COc1cccc(OC)c1-c1cc(C(=O)NC2(C(=O)O)C3CC4CC(C3)CC2C4)nn1-c1ccc(SCCCN(C)CCCN(C)C(=O)CN2CCN(CC(=O)[O-])CCN(CC(=O)[O-])CCN(CC(=O)[O-])CC2)cc1C(C)C.[177Lu+3] (stereo not drawn) [^177Lu-I-8]
% ID/g (4 h) Blood (Blood, 4 h): 6.25 ± 1.53 % ID/g
% ID/g (24 h) Blood (Blood, 24 h): 0.23 ± 0.12 % ID/g
% ID/g (4 h) Femur (Femur, 4 h): 0.89 ± 0.74 % ID/g
% ID/g (24 h) Femur (Femur, 24 h): 0.4 ± 0.16 % ID/g
% ID/g (4 h) Heart (Heart, 4 h): 2.39 ± 0.51 % ID/g
% ID/g (24 h) Heart (Heart, 24 h): 0.5 ± 0.12 % ID/g
% ID/g (4 h) Intestine (Intestine, 4 h): 3.51 ± 1.14 % ID/g
% ID/g (24 h) Intestine (Intestine, 24 h): 1.00 ± 0.34 % ID/g
% ID/g (4 h) Kidney (Kidney, 4 h): 3.09 ± 1.79 % ID/g
% ID/g (24 h) Kidney (Kidney, 24 h): 1.47 ± 1.07 % ID/g
% ID/g (4 h) Liver (Liver, 4 h): 7.4 ± 2.9 % ID/g
% ID/g (24 h) Liver (Liver, 24 h): 1.86 ± 0.97 % ID/g
% ID/g (4 h) Lung (Lung, 4 h): 2.92 ± 2.09 % ID/g
% ID/g (24 h) Lung (Lung, 24 h): 0.55 ± 0.34 % ID/g
% ID/g (4 h) Muscle (Muscle, 4 h): 0.54 ± 0.28 % ID/g
% ID/g (24 h) Muscle (Muscle, 24 h): 0.34 ± 0.14 % ID/g
% ID/g (4 h) Pancreas (Pancreas, 4 h): 0.53 ± 0.09 % ID/g
% ID/g (24 h) Pancreas (Pancreas, 24 h): 0.6 ± 0.2 % ID/g
% ID/g (4 h) Spleen (Spleen, 4 h): 0.71 ± 0.16 % ID/g
% ID/g (24 h) Spleen (Spleen, 24 h): 1.22 ± 0.22 % ID/g
% ID/g (4 h) Stomach (Stomach, 4 h): 1.74 ± 1.36 % ID/g
% ID/g (24 h) Stomach (Stomach, 24 h): 0.69 ± 0.46 % ID/g
% ID/g (4 h) Tumor (Tumor, 4 h): 16.7 ± 10.49 % ID/g
% ID/g (24 h) Tumor (Tumor, 24 h): 26.12 ± 10.63 % ID/g
